Molecules are shown by their SMILES.

By melting point is commonly meant the temperature of the solid-liquid transition. In the case of `Nc1ccc(CN2CCOC2=O)cc1`, the melting point fell in the range of 99 to 101 °C.

In turn, `Cc1sc2ncn(N)c(=O)c2c1C` yielded a melting point of 131 to 133 °C.

As for `NC(CC(=O)O)C1CCOCC1` (stereo not drawn), the melting point lay within 228 to 230 °C.

`O=C(NC1CC1)C(=O)N1CCNCC1` gave a melting point of 100 to 102 °C.

Take `CC(=O)c1cc(Br)c(F)cc1O`: the melting point is 77 to 79 °C.

As to `NNC(=O)c1cccc2cccnc12`, the melting point was in the range of 88 to 90 °C.

`COc1ccc2cc(C=CC#N)ccc2c1` had a melting point of 124 to 126 °C.

As for `Nc1ncc(-c2ccc(Br)cc2)[nH]1`, the melting point lay within 194 to 196 °C.

`O=C(Nc1ccccc1C(=O)O)c1ccccc1`: the melting point fell in the range of 178 to 182 °C.

As for `NNC(=O)C(F)(F)Oc1ccccc1`, the melting point was 76 to 78 °C.

Turning to `COc1ccccc1C(NC(=O)OC(C)(C)C)C(N)=NO` (stereo not drawn), the melting point lay in the range of 185 to 187 °C.

Compound `CNC(C)c1ccc(-n2cnc3ccccc32)cc1` (stereo not drawn) came in with a melting point of 62 to 64 °C.

The compound `CC(=O)NCc1ccc(N)cc1` yielded a melting point of 92 to 94 °C.

On to `Cc1nc(N)[nH]c(=O)c1CC(=O)O`, for which the melting point was in the range of 313 to 315 °C.

`CS(=O)(=O)NC1CCC(O)CC1` (stereo not drawn): the melting point was 149 to 151 °C.

The compound `Clc1ccc(SCc2nc(Cl)c3c4c(sc3n2)CCC4)cc1` gave a melting point of 71 to 75 °C.

For `Cc1c(NS(=O)(=O)c2ccc(N)c(N)c2)c(=O)n(-c2ccccc2)n1C`, the melting point was 233 to 235 °C.

As to `COC(=O)c1cc(Cl)c(=O)[nH]c1C`, the melting point lay within 239 to 241 °C.

`O=C(O)CNc1ncccn1`: the melting point lay within 169 to 171 °C.

Turning to `Nc1nc(Cl)nnc1Cl`, the melting point was 198 to 200 °C.

As to `Nc1ccc(Oc2cc(Cl)ccc2Cl)c(F)c1`, the melting point lay in the range of 62 to 64 °C.

For the compound `CNC(=O)NN`, the melting point is 103 to 105 °C.

On to `NCc1ccc(-c2cccnc2)cc1`, for which the melting point is 66 to 68 °C.

The compound `O=C(O)CSCc1cccc(Cl)c1` gave a melting point of 74 to 76 °C.

`Clc1c[nH]c2ccccc12` had a melting point of 79 to 81 °C.

Compound `CC(C)(C)n1[nH]c(-c2ccccc2)cc1=N` gave a melting point of 103 to 105 °C.

Compound `CSCCC(C(=O)O)N1C(=O)c2ccccc2C1=O` (stereo not drawn) had a melting point of 125 to 127 °C.

For the compound `CC(C)(C)c1ccc(/C=C/c2cc(C(=O)O)c3cc(Br)ccc3n2)cc1`, the melting point is 319 to 321 °C.

Turning to `COc1cccc(-c2ccc(CN)cc2)c1`, the melting point lay in the range of 46 to 48 °C.

`Cc1cc(C(=O)O)nn1-c1ccccc1Cl`: the melting point lay in the range of 179 to 181 °C.

Compound `O=C(O)c1ccc(Cl)c(I)c1` showed a melting point of 212 to 214 °C.

`O=C(O)c1ccc2ncoc2c1` displayed a melting point of 242 to 244 °C.

Take `Nc1ccnn1Cc1ccc(Br)cc1`: the melting point was 97 to 99 °C.

`CCOC(=O)CC(C)(O)c1cccc(O)c1` (stereo not drawn): the melting point was in the range of 85 to 87 °C.

The compound `CNC1(C(=O)O)CCc2ccccc21` (stereo not drawn) yielded a melting point of 279 to 281 °C.

For the compound `CCC(=O)N1CCc2cc(C(=O)CCl)ccc21`, the melting point lay within 201 to 203 °C.

`Cn1c(S)nnc1C1CC1` yielded a melting point of 180 to 182 °C.

For the compound `O=C(O)c1csc(-c2ccc(Cl)cc2Cl)n1`, the melting point was in the range of 204 to 206 °C.

With `Nc1nc(CO)n[nH]1`, the melting point fell in the range of 193 to 195 °C.

With `O=C1CCN(C(=O)c2ccccc2Cl)CC1`, the melting point is 107 to 109 °C.

For the compound `CC(=O)c1cccc(OCCOc2cccc(C(C)=O)c2)c1`, the melting point is 117 to 119 °C.

As to `COc1cccc(C2C(C(=O)O)CC(=O)N2C2CC2)c1` (stereo not drawn), the melting point was in the range of 179 to 181 °C.

With `O=C(Nc1ccccc1[N+](=O)[O-])N1CCCC1`, the melting point is 99 to 101 °C.

In turn, `O=C(O)c1ccn(-c2ccccc2[N+](=O)[O-])n1` showed a melting point of 223 to 225 °C.

Compound `O=C(O)c1nc(-c2ccccc2)oc1C1CC1` registered a melting point of 198 to 200 °C.

Consider `CC(C)(C)OC(=O)NC1CCN(C(=O)CC(F)(F)F)CC1`, for which the melting point lay within 147 to 149 °C.

Take `CCC(Oc1ccccc1Cl)C(=O)O` (stereo not drawn): the melting point lay within 82 to 84 °C.

In turn, `O=c1[nH]cnc2c1nnn2-c1ccccc1` had a melting point of 279 to 281 °C.

`N#CCc1ccc(Oc2ccc(N)cn2)cc1` returned a melting point of 67 to 69 °C.

Take `COC(=O)CNC(=O)CCCl`: the melting point was 59 to 61 °C.

In turn, `COc1ccc(N)c2cccnc12` came in with a melting point of 155 to 157 °C.

Turning to `O=C(O)Cc1ccc(F)c(Br)c1`, the melting point was in the range of 64 to 66 °C.

Compound `O=c1[nH]c2ccccc2nc1NO` returned a melting point of 258 to 260 °C.

Turning to `Cc1cc(C)c(Nc2nnc(S)s2)c(Cl)c1`, the melting point lay within 198 to 200 °C.

The compound `O=[N+]([O-])c1sc(Cl)nc1Cl` yielded a melting point of 38 to 40 °C.

Take `CC(C)c1ccc(N2Cc3ccc(N)cc3C2)cc1`: the melting point lay within 164 to 166 °C.

Turning to `Cc1cc2n(n1)CC(C(F)(F)F)CN2` (stereo not drawn), the melting point was in the range of 194 to 196 °C.

With `CCNC(=O)c1ccc(CN)cc1`, the melting point was 92 to 94 °C.

As for `N#C/C=C/c1ccc(Cl)cc1`, the melting point is 45 to 47 °C.

As for `CCC(C)(C)NC(=O)C(Br)C(C)C` (stereo not drawn), the melting point was in the range of 132 to 134 °C.

Regarding `O=S(=O)(CCN1CCC(O)CC1)c1ccc(Br)cc1`, the melting point fell in the range of 117 to 119 °C.

`O=C(O)C(c1ccccc1)N1C(=O)CCC1=O` (stereo not drawn) registered a melting point of 194 to 196 °C.

Compound `Sc1nnc(-c2ccc[nH]2)o1` had a melting point of 205 to 207 °C.

`O=C1OCCN1S(=O)(=O)Cl` yielded a melting point of 94 to 96 °C.

As for `Nc1nnc(-c2cccnc2)[nH]1`, the melting point was 207 to 209 °C.

With `Clc1ccc2nnc(C3CC3)n2n1`, the melting point lay in the range of 117 to 119 °C.

The compound `c1ccc2[nH]c(Cc3nc4ccccc4s3)nc2c1` registered a melting point of 194 to 196 °C.

On to `CC(C)Cc1nnc(N)s1`, for which the melting point was 239 to 241 °C.

In turn, `CC1CCCCN1Cc1ccc(N)cc1` (stereo not drawn) showed a melting point of 54 to 56 °C.

The compound `CN1CC(=O)N(Cc2ccc(C(N)=O)cc2N)C1=O` registered a melting point of 187 to 189 °C.

As to `Cn1cnc2cc(Br)ccc2c1=O`, the melting point lay in the range of 156 to 158 °C.

In turn, `Cn1ccnc1C(=O)c1cc(S)nc2ccccc12` gave a melting point of 250 to 252 °C.

For `Cc1nn(CCO)c(C(F)(F)Cl)c1C(=O)O`, the melting point is 124 to 126 °C.

With `NCc1ccc(C(=O)N2CCNC(=O)C2)cc1`, the melting point was 143 to 145 °C.

`O=C(c1ccc(F)cc1Cl)N1CCNCC1` registered a melting point of 75 to 77 °C.

`O=C(O)CCn1c(=O)[nH]c(=O)c2ccccc21` gave a melting point of 231 to 233 °C.

With `CCOC(=O)Cn1c(=O)[nH]c2cc(Br)cnc21`, the melting point lay in the range of 206 to 208 °C.

As to `Oc1ccc(Oc2ccccn2)cc1`, the melting point was in the range of 142 to 144 °C.

Take `NC(=S)Cc1ccccc1`: the melting point was in the range of 84 to 86 °C.

`Cc1cccc(Nc2nnc(S)s2)c1` had a melting point of 196 to 198 °C.

`CCCC(=O)Nc1cccc(CN)c1` came in with a melting point of 54 to 56 °C.

With `O=C(O)c1cc2c(F)c(F)ccc2[nH]1`, the melting point lay within 209 to 211 °C.

`CC1CC(C(=O)O)CC(=O)N1` (stereo not drawn) registered a melting point of 159 to 161 °C.

For the compound `Cc1ccc(-c2cc(N)on2)cc1`, the melting point was in the range of 148 to 150 °C.

Take `NCCCN1CCCC(C(N)=O)C1` (stereo not drawn): the melting point fell in the range of 71 to 73 °C.

In turn, `Cc1nc2ccnn2c(C)c1C(=O)O` returned a melting point of 194 to 196 °C.

`O=C(O)CCn1cnc2cc(F)c(F)cc21` returned a melting point of 157 to 159 °C.

On to `COC(=O)c1cccc(-c2cccc(C(=O)OC)c2)c1`, for which the melting point was 99 to 101 °C.

The values are drawn from a melting point compilation (Tetko et al.).
